Measurements: US9045524B2, “Selective caspase inhibitors and uses thereof” (NOVAGENESIS FOUNDATION, priority 2009, dated 2015)

Assays:
[1] = biological target: Caspase-2 (Homo sapiens (Human), UniProt P42575); experiment: Fluorometric enzymatic assay, active recombinant Caspase-2; assay type: biochemical; settings: 10-point titration 0.1 nM to 3.3 μM, 30-minute incubation at 37° C.; read-out: IC50 values (μM) Caspase-2
Experimental: (§1) . In brief, each compound was serially diluted for a final test concentration range of 0.1 nM to 3.3 μM (10-point titration). Each active recombinant Caspase (Active Recombinant Caspase Set IV™ (BioVision, Cat# K233-10-25)) was added to the respective wells of the 96-well High Efficiency™ plates (Molecular Devices, Cat#75-000-0005), followed by the addition of the diluted test compounds. DMSO (Final=1%) or Z-VAD-FMK (Caspase-Family Inhibitor, Z-VAD-FMK (BioVision, Cat#1010-100), Final concentration=20 uM) was added in the designated wells as a background control or positive inhibitor control respectively. Each dilution of the test compounds was tested in duplicates, whereas the DMSO or Z-VAD-FMK controls were tested in triplicates. The synthetic peptide substrate specific for each Caspase (BioVision) was then added to the respective wells, which when cleaved by the active caspase releases free AFC that can be quantified by fluorometry. After a 30-minute incubation at 37° C., the plates were read using the Flexstation 3™ with a 400 nm excitation filter and a 505 nm emission filter (cutoff at 495 nm). The inhibition efficiency and the IC50 values of the test compounds were then determined by comparing the fluorescence intensity (FI) of the test compounds with that of the DMSO control.
(§2) The SoftMax Pro Software™ (v5.2 rev C, Molecular Devices) was used for data analysis. The % Inhibition is calculated by: % Inhibition=[FI(DMSO)−FI(test sample)/FI(DMSO)]×100. The % Inhibition vs. Log(concentration) was plotted, and the curve was fitted using the 5-parameter fit of the software.

[2] = system: EAE in C57BL/6 mice; experiment: Chronic EAE mouse model (MOG35-55 immunization), daily clinical score and body weight; assay type: in vivo; parameters: key to Delay in onset of the disease / Reduction in severity of the disease / Reduction in body weight loss: +++: high level improvement; ++: moderate improvement; +: small improvement; −: no improvement
Outline: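 Female C57BL/6 mice, 7–8 weeks old, were immunized s.c. with 100 μg MOG35-55 in CFA containing M. tuberculosis H37Ra, plus 200 ng pertussis toxin i.p. on days 0 and 2. […], compound in 2.5% DMSO/PBS was given i.p.; vehicle for placebo. Clinical score (0–5) and body weight were recorded daily.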

[3] = biological target: Caspase-9 (Homo sapiens (Human), UniProt P55211); experiment: Caspase-9 Inhibitor Drug Screening Kit, fluorometric (AFC liberation); assay type: biochemical; settings: 30-minute incubation at 37° C.; approximations of the average values; read-out: Caspase enzymatic activity, IC50 (uM) Caspase 9
Caspase-9, sequence (P55211 whole entry): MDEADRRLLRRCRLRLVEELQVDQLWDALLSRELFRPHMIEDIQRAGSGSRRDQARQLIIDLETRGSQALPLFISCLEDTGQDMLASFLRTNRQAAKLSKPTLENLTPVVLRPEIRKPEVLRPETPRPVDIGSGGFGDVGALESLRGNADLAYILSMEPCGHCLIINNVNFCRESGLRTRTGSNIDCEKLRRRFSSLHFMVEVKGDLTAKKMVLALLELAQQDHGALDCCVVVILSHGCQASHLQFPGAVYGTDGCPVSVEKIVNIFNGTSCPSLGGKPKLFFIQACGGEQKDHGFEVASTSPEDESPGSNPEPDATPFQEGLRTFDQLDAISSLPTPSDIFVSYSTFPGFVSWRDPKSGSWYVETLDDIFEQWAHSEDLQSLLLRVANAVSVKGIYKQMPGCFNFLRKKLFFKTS
Experimental: (§3) The level of inhibition of caspase-1, -3, -5, -7, -9 activity was determined by comparison of the relative fluorescence intensity in samples with or without the compound.

[4] = system: Glo3/7; experiment: Glo3/7 assay; assay type: biochemical
[5] = biological target: T1, Caspase-5 (Homo sapiens (Human), UniProt P51878); experiment: Fluorometric enzymatic assay, active recombinant Caspase-5; assay type: biochemical; settings: 10-point titration 0.1 nM to 3.3 μM, 30-minute incubation at 37° C.; read-out: IC50 values (μM) Caspase-5
Experimental: as §1, §2
Target sequence in this assay (P51878 whole entry, looked up): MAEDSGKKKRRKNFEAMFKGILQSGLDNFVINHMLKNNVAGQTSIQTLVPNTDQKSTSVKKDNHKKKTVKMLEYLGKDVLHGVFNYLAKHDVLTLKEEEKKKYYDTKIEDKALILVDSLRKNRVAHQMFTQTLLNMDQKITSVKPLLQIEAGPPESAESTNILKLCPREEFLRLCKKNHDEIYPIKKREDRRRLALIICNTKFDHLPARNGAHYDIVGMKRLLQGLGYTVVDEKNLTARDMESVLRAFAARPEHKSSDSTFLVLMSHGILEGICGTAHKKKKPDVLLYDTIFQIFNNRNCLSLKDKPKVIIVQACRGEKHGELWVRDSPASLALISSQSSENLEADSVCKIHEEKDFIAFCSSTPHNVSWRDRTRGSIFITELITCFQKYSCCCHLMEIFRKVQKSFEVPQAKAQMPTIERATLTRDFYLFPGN
Target sequence in this assay (P51878 whole entry, looked up): as above

[6] = biological target: T1, Caspase-5; experiment: Caspase-5 Inhibitor Drug Screening Kit, fluorometric (AFC liberation); assay type: biochemical; settings: 30-minute incubation at 37° C.; approximations of the average values; read-out: Caspase enzymatic activity, IC50 (uM) Caspase 5
Target sequence in this assay (P51878 137-434): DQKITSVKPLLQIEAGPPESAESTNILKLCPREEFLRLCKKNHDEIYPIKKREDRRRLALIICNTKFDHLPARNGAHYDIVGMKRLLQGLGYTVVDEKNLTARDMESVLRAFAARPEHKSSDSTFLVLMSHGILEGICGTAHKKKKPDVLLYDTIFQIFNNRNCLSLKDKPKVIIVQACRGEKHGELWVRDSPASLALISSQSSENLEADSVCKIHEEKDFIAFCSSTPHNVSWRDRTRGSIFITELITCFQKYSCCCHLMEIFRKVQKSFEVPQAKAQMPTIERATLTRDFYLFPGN
Experimental: as §3

[7] = biological target: Caspase-8 (Homo sapiens (Human), UniProt Q14790); experiment: Fluorometric enzymatic assay, active recombinant Caspase-8; assay type: biochemical; settings: 10-point titration 0.1 nM to 3.3 μM, 30-minute incubation at 37° C.; read-out: IC50 values (μM) Caspase-8
Caspase-8, sequence (Q14790 217-374): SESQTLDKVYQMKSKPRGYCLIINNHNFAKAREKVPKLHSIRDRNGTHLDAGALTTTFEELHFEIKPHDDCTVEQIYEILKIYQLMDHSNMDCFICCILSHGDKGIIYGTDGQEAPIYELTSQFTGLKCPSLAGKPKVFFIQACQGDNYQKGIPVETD
Caspase-8, sequence (Q14790 385-479): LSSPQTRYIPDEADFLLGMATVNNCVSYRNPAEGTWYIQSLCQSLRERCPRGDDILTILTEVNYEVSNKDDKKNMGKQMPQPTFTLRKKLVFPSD
Experimental: as §1, §2

[8] = FIG. 1, i.p. from day 10 to 16 post immunization, versus placebo
[9] = FIG. 3, i.p. from day 14 to 19 post immunization, versus placebo
[10] = FIG. 4, administration for 15 days from day 12 post-immunization, versus placebo
[11] = average overall effects on the EAE model, i.p.

Caspase-2, sequence (P42575 170-325): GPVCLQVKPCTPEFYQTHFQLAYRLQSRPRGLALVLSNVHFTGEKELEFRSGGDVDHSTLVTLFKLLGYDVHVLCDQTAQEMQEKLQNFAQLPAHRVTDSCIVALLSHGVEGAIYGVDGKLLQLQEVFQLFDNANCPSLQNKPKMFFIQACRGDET
Caspase-2, sequence (P42575 348-452): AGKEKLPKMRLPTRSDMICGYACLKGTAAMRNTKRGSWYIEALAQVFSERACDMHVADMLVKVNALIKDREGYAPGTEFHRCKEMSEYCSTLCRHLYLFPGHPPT

## CC(C)[C@H](NC(=O)[C@@H](NC(=O)[C@H](CC(=O)O)NC(=O)OCc1ccccc1)c1ccccc1)C(=O)N[C@H](/C=C/S(C)(=O)=O)CC(=O)O [Compound 53, Z-Asp-Phg-Val-Aspmethyl vinyl sulfone]
[1]
  IC50: > 3.33 µM
[2]; [8]
  Cumulative clinical score: significantly lower compared to placebo
  Disease onset: delayed
  Loss of body weight: less than the placebo
  clinical severity of the disease: reduced significantly
  maximal clinical score: significantly lower compared to placebo
[2]; FIG. 3, i.p. from day 14 to 19 post immunization, twice the concentration of compound 53
  delay of the clinical score (symptoms of EAE): delayed significantly the clinical score
[2]; [9]
  Loss of body weight: less than in the placebo group
  effects on the clinical course of EAE: ameliorating effects
[2]; [10]
  Loss of body weight: less than placebo
  severity of the disease: began to reverse the effects of the disease and reduced the severity of the disease continuously
[2]; [11]
  Delay in onset of the disease: +++
  Reduction in body weight loss: +++
  Reduction in severity of the disease: +++
[3]
  IC50: > 10 µM
[4]
  IC50: 0.1 µM
[5]
  IC50: > 3.33 µM
[6]
  IC50: > 10 µM
[7]
  IC50: > 3.33 µM
